8 compounds from patent US5494925A, “2-heterocyclyloxymethyl and 2-heterocyclylthiomethyl-1,2,5-thiadiazolidin-3-one 1,1-dioxides and compositions and method of use thereof” (Sterling Winthrop Inc., priority 1994, dated 1996) can be followed below.

The target of this experiment is T1, human leukocyte elastase (Homo sapiens, UniProt P08246).
T1 sequence (P08246 30-267): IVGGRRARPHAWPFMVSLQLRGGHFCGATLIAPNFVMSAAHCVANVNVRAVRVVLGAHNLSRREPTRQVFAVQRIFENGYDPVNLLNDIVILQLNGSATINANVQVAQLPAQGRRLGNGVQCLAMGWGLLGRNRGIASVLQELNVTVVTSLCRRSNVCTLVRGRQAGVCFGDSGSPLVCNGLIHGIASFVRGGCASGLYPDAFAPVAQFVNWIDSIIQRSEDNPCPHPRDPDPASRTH
The experiment is described as follows: human leukocyte elastase inhibition, progress curves with MeOSuc-Ala-Ala-Pro-Val-pNA. It is filed as biochemical. The conditions noted are these: HLE; substrate MeOSuc-Ala-Ala-Pro-Val-pNA; pH 7.8, 25° C.; 410 nM absorbance; read-out: inhibition constant Ki. The method, then: The test compound (inhibitor) is dissolved in DMSO in a vial to produce an inhibitor stock solution which has a concentration in the range of 200-1000 μM. The inhibitor stock solution is diluted (1:4, 1:16 and 1:64) into assay vials (vials 1, 2 and 3 respectively) containing 2.4 mL of buffer solution (50 mM N-[2-hydroxyethyl]piperazine-N'-[2-ethanesulfonic acid]/NaOH, 500 mM NaCl, pH 7.8 at 25° C.) and DMSO is added so that the total volume in each vial is 3.2 mL. 70 μL, 50 μL, 35 μL and 25 μL of inhibitor from assay vial 1 is placed into the first four wells of a 96-well microtiter plate and each well is made up to 90 μL total volume with the addition of a 25% DMSO/buffer solution. The inhibitor from assay vials 2 and 3 is processed in a similar manner and placed in wells 5-12 respectively to afford a total of 12 different inhibitor concentrations. Four wells (wells 13-16) containing 90 μL of the 25% DMSO/buffer solution but no inhibitor are also run simultaneously with the inhibited wells as a control. 150 μL of substrate solution (prepared by the addition of 500 μL of the human leukocyte elastase (HLE) substrate MeOSuc-Ala-Ala-Pro-Val-pNA (18.7 mM in DMSO) to 19.5 mL of buffer solution) is then added simultaneously into each of the 16 wells and the solution in each well was thoroughly mixed.
The 96-well microtiter plate is placed into a Microplate Reader #89815A spectrophotometer and 110 μL of the enzyme solution (prepared as follows: a mixture of 20 mL of buffer solution and 20 mg of bovine serum albumen is gently vortexed in a scintillation vial and 5 μL HLE stock solution (1 mg/mL dissolved in deionized water) is added) is added simultaneously to each of the 16 wells. Each of the solutions in the wells is thoroughly mixed and then the time-dependent absorbance data is collected at an absorbance of 410 nm until the assay is complete. It should be noted that although this assay method can be done manually, it is preferred to perform the assay robotically using a Hewlett Packard MicroAssay System Robot.
A plot of the absorbance versus time data thus obtained affords progress curves the final slope of which is equal to the final steady-state velocities (VF). Using the program ENZFITTER (Elsevier software), the progress curves for the four control assays ([I]=0) are fit by linear regression to yield the enzyme reaction velocity values in the absences of inhibitor (Vo) which are averaged to produce a single fixed value. The inhibition constant Ki (nM) is then obtained from a plot of [formula] which affords a linear plot wherein: [formula] and [S] is the concentration of the substrate and Km is the Michaelis constant.
Table V summarizes the results obtained from the testing of representative compounds of the invention for human leukocyte elastase inhibitory activity.
Consider `CC(C)C1NS(=O)(=O)N(CSc2nnnn2-c2ccccc2)C1=O` (racemic) [2 (f), 2-(1-phenyl-1H-tetrazol-5-yl-thiomethyl)-4-isopropyl-1,2,5-thizdizolidin-3-one 1,1-dioxide], for which the Ki is 3000 nM. For `CCCC1NS(=O)(=O)N(CSc2nnnn2-c2ccccc2)C1=O` (centres unmarked) [1 (f), 2-(1-phenyl-1H-tetrazol-5-yl-thiomethyl)-4-propyl-1,2,5-thiadiazolidin-3-one 1,1-dioxide], the Ki worked out at 180 nM.

Take `CCCC1C(=O)N(CSc2nnnn2-c2ccccc2)S(=O)(=O)N1C` (centres unmarked) [3 (h), 2-(1-phenyl-1H-tetrazol-5-yl-thiomethyl)-4-propyl-5-methyl-1,2,5-thiadiazolidin-3-one 1,1-dioxide]: the Ki worked out at 3.6 nM. In the case of `CC(C)C1C(=O)N(CSc2nnnn2-c2ccccc2)S(=O)(=O)N1C` (centres unmarked) [4 (f), 2-(1-phenyl-1H-tetrazol-5-yl-thiomethyl)-4-isopropyl-5-methyl-1,2,5-thiadiazolidin-3-one 1,1-dioxide], the Ki is 200 nM.

Consider `CCCC1C(=O)N(CSc2nnnn2-c2ccccc2)S(=O)(=O)N1CC` (centres unmarked) [5 (i), 2-(1-phenyl-1H-tetrazol-5-yl-thiomethyl)-4-propyl-5-ethyl-1,2,5-thiadiazolidin-3-one 1,1-dioxide], for which the Ki turned out to be 11 nM. Turning to `CC(C)CCC1C(=O)N(COc2cc(C(F)(F)F)nn2-c2ccccc2)S(=O)(=O)N1C` (centres unmarked) [6 (j), 2-(1-phenyl-3-trifluoromethyl-pyrazol-5-yloxymethyl)-4-(3-methylbutyl)-5-methyl-1,2,5-thiadiazolidin-3-one 1,1-dioxide], the Ki came out at 2.4 nM. The same measure for `O=C1C2CCCCN2S(=O)(=O)N1CSc1nnnn1-c1ccccc1` (centres unmarked) [18 (f), 2-(1-phenyl-1H-tetrazol-5-yl-thiomethyl)-1,2,5-thiadiazolo [2,3-a]3,3a,4,5,6,7-hexahydropyridine-3-one 1,1-dioxide]: 85 nM; for `O=C1C2CCCN2S(=O)(=O)N1CSc1nnnn1-c1ccccc1` (centres unmarked) [19 (f), 2-(1-phenyl-1H-tetrazol-5-yl-thiomethyl)tetrahydropyrrolo[1,2-b]-1,2,5-thiadiazol-3 (2H)-one 1,1-dioxide]: 540 nM.
